Reference: patent USRE30241E, “Esters of 3-(hydroxy or hydroxymethyl)-4-hydroxyphenyl aminomethyl ketones” (Sterling Drug Inc., priority 1970, dated 1980)
Structures can show the parent of a compound that is named as a salt. Where two headings read alike, the source gives them in different places.

Assays:
[1] = test system: guinea pig bronchioles constricted by carbachol; test: Bronchodilator Test Method II, in vitro perfused guinea pig lung; conditions: for ED50: carbachol (Doryl) 1:5 million
Protocol: In this method bronchodilator activity in vitro was determined by testing the effect of graded doses of the test compounds on guinea pig bronchioles constricted by carbachol, using the technique reported by Sollman and von Oettingen, Proc. Soc, Exp. Biol. Med., 25,692 (1928) as modified by Tainter, Pedden, and James, J. Pharm. Exp. Ther., 51, 371 (1934) and by Luduena, von Euler, Tullar, and Lands, Arch. intern. Pharmacol., III, 392 (1957).

[2] = Solubility and pH of salts; conditions: for pH of a 1 percent aqueous solution: 1 percent aqueous solution of the salt; for precipitation on raising pH to 7.0: 1 percent aqueous solution, N/10 sodium hydroxide to pH 7.0
[3] = test system: carbachol- or histamine-induced bronchoconstriction; test: Bronchodilator Test Method I, anesthetized dog, intravenous activity; format: in vivo; conditions: Canis lupus familiaris, read-out: Bronchodilatation; for inhibition in vivo at 0.0055 mg/kg: 5.5 mcg/kg i.v.; for inhibition in vivo at 0.0056 mg/kg: 5.6 mcg/kg i.v.; for inhibition in vivo at 0.0112 mg/kg: 11.2 mcg/kg i.v.; for inhibition in vivo at 0.112 mg/kg: 112.0 mcg/kg i.v.; for inhibition in vivo at 0.0224 mg/kg: 22.4 mcg/kg i.v.; for inhibition in vivo at 0.0285 mg/kg: 28.5 mcg/kg i.v.; for inhibition in vivo at 0.114 mg/kg: 114 mcg/kg i.v.; for inhibition in vivo at 0.228 mg/kg: 228 mcg/kg i.v.; for inhibition in vivo at 0.0012 mg/kg: 1.2 mcg/kg i.v.; for inhibition in vivo at 0.003 mg/kg: 3.0 mcg/kg i.v.
Procedure, shortened: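 Pentobarbital-anesthetized (30 mg/kg i.v.), open-chest, artificially ventilated dogs were given i.v. carbachol (4-6 µg/kg) or histamine diphosphate (35-45 µg/kg). Test compound was given i.v. mixed with, after, or 1-10 min before the constrictor.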

[4] = 1 percent solution in dimethyl sulfoxide
[5] = 1 percent solution in glycerol formal

With `CC(C)(C)NCC(O)c1ccc(OC(=O)c2ccccc2)c(OC(=O)c2ccccc2)c1.Cl` (stereo not drawn) [Example 29, 3,4-bis(benzoyloxy)-alpha-(tert-butylaminomethyl)benzyl alcohol hydrochloride] the ED50 [1] was 1.1 µg (base), the “Duration, Mean” value ([1]; dose 3.2 mcg (base)) was 34 ± 6.4 min and the “precipitation on dilution with three volumes of water” value (shortened to “precipitation on dilution”) [2, 4] was “no precipitate formed”. The “precipitation on dilution” value [2, 5] was “no precipitate formed”, the solubility ([2]; dimethyl sulfoxide, organic solvent or mixture) was no less than 10 mg/mL and the solubility ([2]; glycerol formal, organic solvent or mixture) was no less than 10 mg/mL.
In the case of `CCC(C)C(=O)Oc1ccc(C(O)CNC(C)(C)C)cc1OC(=O)C(C)CC.Cl` (stereo not drawn) [Example 4, 3,4-bis(2-methylbutanoyloxy)-alpha-(tert-butylaminomethyl)benzyl alcohol hydrochloride], the inhibition in vivo at 0.0055 mg/kg ([3]; 2 min, 2 min) is reported as 48%, the inhibition in vivo at 0.0055 mg/kg ([3]; 0.5 h, 30 min) is reported as 5% and the inhibition in vivo at 0.0055 mg/kg ([3]; 1 h, 60 min) is reported as 0%. The ED50 [1] was 0.45 µg (base), the “Duration, Mean” value ([1]; dose 1 mcg (base)) was 20 ± 3 min and the solubility ([2]; water) was no less than 50 mg/mL.
For `CC(C)(C)NCC(O)c1ccc(OC(=O)C(C)(C)C)c(OC(=O)C(C)(C)C)c1.Cl` (stereo not drawn) [Example 5, 3,4-bis(pivalyloxy)-alpha-(tert-butylaminomethyl)benzyl alcohol hydrochloride], the inhibition in vivo at 0.0028 mg/kg ([3]; 5 min, 2.8 mcg/kg i.v., 5 min) was 14%, the inhibition in vivo at 0.0056 mg/kg ([3]; 5 min, 5 min) was 53% and the inhibition in vivo at 0.0112 mg/kg ([3]; 5 min, 5 min) was 57%. The inhibition in vivo at 0.112 mg/kg ([3]; 5 min, 5 min) was 100%, the inhibition in vivo at 0.0056 mg/kg ([3]; 0.5 h, 30 min) was 27% and the inhibition in vivo at 0.0112 mg/kg ([3]; 0.5 h, 30 min) was 30%. It also gave an inhibition in vivo at 0.0224 mg/kg ([3]; 0.5 h, 30 min) of 81%, an inhibition in vivo at 0.112 mg/kg ([3]; 0.5 h, 30 min) of 92% and an inhibition in vivo at 0.0056 mg/kg ([3]; 1 h, 60 min) of 26%. The inhibition in vivo at 0.0112 mg/kg ([3]; 1 h, 60 min) was 4%, the inhibition in vivo at 0.0224 mg/kg ([3]; 1 h, 60 min) was 62% and the inhibition in vivo at 0.112 mg/kg ([3]; 1 h, 60 min) was 59%. For the same compound, the inhibition in vivo at 0.0224 mg/kg ([3]; 2 h, 120 min) was 62%, the inhibition in vivo at 0.112 mg/kg ([3]; 2 h, 120 min) was 13% and the inhibition in vivo at 0.0224 mg/kg ([3]; 3 h, 180 min) was 15%. For the same compound, the inhibition in vivo at 0.0224 mg/kg ([3]; 4 h, 240 min) was 0%, the ED50 ([1]; hydrochloride) was 0.94 µg (base) and the “Duration, Mean” value ([1]; dose 2 mcg (base)) was 18 ± 4.2 min. The solubility ([2]; water) was no less than 50 mg/mL.
For `CC(C)(C)CC(=O)Oc1ccc(C(O)CNC(C)(C)C)cc1OC(=O)CC(C)(C)C.Cl` (stereo not drawn) [Example 7, 3,4-bis(3,3-dimethylbutanoyloxy)-alpha-(tert-butylaminomethyl)benzyl alcohol hydrochloride], the inhibition in vivo at 0.0285 mg/kg ([3]; 5 min, 5 min) was 28%, the inhibition in vivo at 0.114 mg/kg ([3]; 5 min, 5 min) was 52% and the inhibition in vivo at 0.228 mg/kg ([3]; 5 min, 5 min) was 98%. The inhibition in vivo at 0.0285 mg/kg ([3]; 0.5 h, 30 min) was 32%, the inhibition in vivo at 0.114 mg/kg ([3]; 0.5 h, 30 min) was 42% and the inhibition in vivo at 0.228 mg/kg ([3]; 0.5 h, 30 min) was 77%. It also gave an inhibition in vivo at 0.0285 mg/kg ([3]; 1 h, 60 min) of 24%, an inhibition in vivo at 0.114 mg/kg ([3]; 1 h, 60 min) of 33% and an inhibition in vivo at 0.228 mg/kg ([3]; 1 h, 60 min) of 68%. For the same compound, the inhibition in vivo at 0.0285 mg/kg ([3]; 2 h, 120 min) was 24%, the inhibition in vivo at 0.114 mg/kg ([3]; 2 h, 120 min) was 25% and the inhibition in vivo at 0.228 mg/kg ([3]; 2 h, 120 min) was 56%. It also gave an inhibition in vivo at 0.0285 mg/kg ([3]; 3 h, 180 min) of 22%, an inhibition in vivo at 0.114 mg/kg ([3]; 3 h, 180 min) of 19% and an inhibition in vivo at 0.228 mg/kg ([3]; 3 h, 180 min) of 50%. The inhibition in vivo at 0.0285 mg/kg ([3]; 4 h, 240 min) was 23%, the inhibition in vivo at 0.228 mg/kg ([3]; 4 h, 240 min) was 44% and the ED50 [1] was 23 µg (base). The “Duration, Mean” value ([1]; dose 32 mcg (base)) was 85 ± 17 min and the solubility ([2]; water) was no less than 10 mg/mL.
In the case of `CCC(C)CC(=O)Oc1ccc(C(O)CNC(C)(C)C)cc1OC(=O)CC(C)CC.Cl` (stereo not drawn) [Example 6, 3,4-bis(3-methylpentanoyloxy)-alpha-(tert-butylaminomethyl)benzyl alcohol hydrochloride], the ED50 [1] is reported as 1.3 µg (base), the “Duration, Mean” value ([1]; dose 3.2 mcg (base)) is reported as 43 ± 3.7 min and the solubility ([2]; water) is reported as no less than 50 mg/mL.
Compound `Cc1ccc(C(=O)Oc2ccc(C(=O)CNC(C)(C)C)cc2OC(=O)c2ccc(C)cc2)cc1` [3,4-bis(p-toluyloxy)phenyl tert-butylaminomethyl ketone hydrochloride] has a solubility ([2]; water) of less than 1 mg/mL.
For `COc1ccc(C(=O)Oc2ccc(C(O)CNC(C)(C)C)cc2OC(=O)c2ccc(OC)cc2)cc1.Cl` (stereo not drawn) [Example 33, 3,4-bis(p-anisoyloxy)-alpha-(tert-butylaminomethyl)benzyl alcohol hydrochloride], the ED50 [1] was 6.9 µg (base), the “Duration, Mean” value ([1]; dose 10 mcg (base)) was 32 ± 5 min and the “precipitation on dilution” value [2, 4] was “no precipitate formed”. For the same compound, the “precipitation on dilution” value [2, 5] was “no precipitate formed” and the solubility ([2]; polyethyleneglycol 200, organic solvent or mixture) was less than 10 mg/mL.
`CC(C)(C)NCC(O)c1ccc(OC(=O)C2CCCCC2)c(OC(=O)C2CCCCC2)c1.Cl` (stereo not drawn) [Example 15, 3,4-bis(cyclohexanecarbonyloxy)-alpha-(tert-butylaminomethyl)benzyl alcohol hydrochloride] gave an inhibition in vivo at 0.0012 mg/kg ([3]; 2 min, 2 min) of 20%, an inhibition in vivo at 0.003 mg/kg ([3]; 2 min, 2 min) of 36% and an inhibition in vivo at 0.0012 mg/kg ([3]; 0.5 h, 30 min) of 27%. It also gave an inhibition in vivo at 0.0012 mg/kg ([3]; 1 h, 60 min) of 8%, an inhibition in vivo at 0.003 mg/kg ([3]; 1 h, 60 min) of 31% and an inhibition in vivo at 0.0012 mg/kg ([3]; 2 h, 120 min) of 0%. The inhibition in vivo at 0.003 mg/kg ([3]; 2 h, 120 min) was 26%, the inhibition in vivo at 0.003 mg/kg ([3]; 3 h, 180 min) was 20% and the ED50 [1] was 1.3 µg (base). The “Duration, Mean” value ([1]; dose 3.2 mcg (base)) was 53 ± 7 min, the “precipitation on dilution” value [2, 4] was “no precipitate formed” and the solubility ([2]; polyethyleneglycol, organic solvent or mixture) was less than 1 mg/mL. The solubility ([2]; water) was less than 1 mg/mL.
For `CC(C)CC(=O)Oc1cc(C(O)CNC(C)(C)C)ccc1OC(=O)C(C)(C)C.Cl` (stereo not drawn) [Example 71, 3-(isovaleryloxy)-4-(pivalyloxy)-alpha-(tert-butylaminomethyl)benzylalcohol hydrochloride], the ED50 [1] was 0.63 µg (base), the “Duration, Mean” value ([1]; dose 2 mcg (base)) was 26 min and the solubility ([2]; water) was no less than 50 mg/mL.
For `CCCC(=O)Oc1ccc(C(O)CNC(C)(C)C)cc1OC(=O)CCC.Cl` (stereo not drawn) [Example 1, 3,4-bis(butyryloxy)-alpha-(tert-butylaminomethyl)benzyl alcohol hydrochloride], the ED50 [1] was 0.23 µg (base), the “Duration, Mean” value ([1]; dose 0.5 mcg (base)) was 9 ± 1.0 min and the “pH of a 1 percent aqueous solution” value [2] was 6.0. The “precipitation on raising pH to 7.0” value [2] was “a precipitate formed” and the solubility ([2]; water) was no less than 200 mg/mL.
Compound `CC(C)CC(=O)Oc1ccc(C(O)CNC(C)(C)C)cc1OC(=O)CC(C)C.Cl` (stereo not drawn) [Example 3, 3,4-bis(isovaleryloxy)-alpha-(tert-butylaminomethyl)-benzyl alcohol hydrochloride] has an inhibition in vivo at 0.00055 mg/kg ([3]; 1 min, 0.55 mcg/kg i.v., 1-2 min) of 32%, an inhibition in vivo at 0.0011 mg/kg ([3]; 1 min, 1.1 mcg/kg i.v., 1-2 min) of 54% and an inhibition in vivo at 0.0022 mg/kg ([3]; 1 min, 2.2 mcg/kg i.v., 1-2 min) of 74%. The ED50 [1] was 0.6 µg (base), the “Duration, Mean” value ([1]; dose 1.2 mcg (base)) was 18 ± 4 min and the “pH of a 1 percent aqueous solution” value [2] was 5.4. For the same compound, the “precipitation on raising pH to 7.0” value [2] was “a precipitate formed” and the solubility ([2]; water) was no less than 200 mg/mL.
In the case of `CC(C)CC(=O)Oc1ccc(C(O)CNC(C)(C)C)cc1O` (stereo not drawn) [Example 58, 3-hydroxy-4-(isovaleryloxy)-alpha-(tert-butylaminomethyl)benzyl alcohol methanesulfonate], the ED50 [1] is reported as 1.4 µg (base), the “Duration, Mean” value ([1]; dose 2.4 mcg (base)) is reported as 12 ± 2.5 min and the solubility ([2]; water) is reported as no less than 50 mg/mL.
